In patent publication US20220183282A1, “Fatty Acid Derivatives For Improving The Effect Of Agrochemical Actives” (priority 2019, published 2022):
Like-named read-outs stand apart in the source and are kept apart here.

How the values were obtained:
apple leaf cuticles [1] = experiment: Penetration of lodosulfuron-methyl through isolated apple leaf cuticles in the presence of test substances; assay type: in vitro ADME; conditions: for Mean penetration for lodosulfuron-methyl after time: lodosulfuron-methyl 0.1 g/L in spray liquid, 10° C./61% rel. air humidity
From the text: (§1) Surfactants can affect the absorption of (active) ingredients through membranes such as skin, films or the plant cuticle. As a “finite-dose” application, it is known for the single administration or application of a solution, cream, gel etc. to a membrane that the absorption of active ingredient can be influenced by some additives such as surfactants even after wetting.
(§2) The principle of the method has been published and described in detail e.g. in WO-A-2005/194844 or WO2017211572 A1). The leaf cuticles were enzymatically isolated in the manner described in the literature from apple leaves of orchard trees in a commercial stone fruit growing facility near Frankfurt am Main in 2017. The stomata-free cuticles were first dried under air and then installed into stainless steel diffusion cells. After application to the original upper side of the leaf and evaporation of the test liquid, i.e. of the spray liquids of the active ingredients with or without the inventive substances or comparative compositions, the diffusion cells were transferred into thermostated blocks and charged with aqueous liquid. The water used to make up the aqueous test liquids was local tap water (of known composition). At regular intervals, aliquot samples were taken and the proportion of active ingredient penetrated was determined by HPLC or alternatively by radio-chemical method where radio-labelled active ingredient was used as tracer to determine the concentration. During the experiment, the temperature in the system (block, diffusion cells, liquids, etc.) and the air humidity above the spray deposit on the cuticle were controlled. […] The analytical determination by means of HPLC (1290 Infinity, Agilent) was effected thereafter with a Kinetex column 30×2, 1 mm, 2.6μ C18 100 A (Phenomenex), taking a 20 μL aliquot as injection volume at the specified times. In each case, the geometric mean values of the penetration for intact membranes at the mean measurement times are given.

apple leaf cuticles [2] = experiment: Penetration of Flufenacet through isolated apple leaf cuticles in the presence of test substances; conditions: for Mean penetration for Flufenacet after time: Flufenacet 0.75 g/L in spray liquid, 10° C./61% rel. air humidity
From the text: as §1, §2

apple leaf cuticles [3] = conditions: for Mean penetration for Benzyladenine after time: Benzyladenine 0.1 g/L in spray liquid
From the text: as §1
(§3) The principle of the method has been published and described in detail e.g. in WO-A-2005/194844 or WO2017211572 A1). The leaf cuticles were enzymatically isolated in the manner described in the literature from apple leaves of orchard trees in a commercial stone fruit growing facility near Frankfurt am Main in 2017. The stomata-free cuticles were first dried under air and then installed into stainless steel diffusion cells. After application to the original upper side of the leaf and evaporation of the test liquid, i.e. of the spray liquids of the active ingredients with or without the inventive substances or comparative compositions, the diffusion cells were transferred into thermostated blocks and charged with aqueous liquid. The water used to make up the aqueous test liquids was local tap water (of known composition). At regular intervals, aliquot samples were taken and the proportion of active ingredient penetrated was determined by HPLC or alternatively by radio-chemical method where radio-labelled active ingredient was used as tracer to determine the concentration. During the experiment, the temperature in the system (block, diffusion cells, liquids, etc.) and the air humidity above the spray deposit on the cuticle were controlled. In the experiment, relative air humidity was constant throughout at 56% relative air humidity (air over supersaturated calcium nitrate) at a constant 10° C. or 25° C. The analytical determination by means of HPLC (1290 Infinity, Agilent) was effected thereafter with a Kinetex column 30×2, 1 mm, 2.6μ C18 100 A (Phenomenex), taking a 20 μL aliquot as injection volume at the specified times. In each case, the geometric mean values of the penetration for intact membranes at the mean measurement times are given.

apple leaf cuticles [4] = experiment: Penetration of Imidacloprid through isolated apple leaf cuticles in the presence of test substances; conditions: for Mean penetration for Imidacloprid after time: Imidacloprid 0.5 g/L in spray liquid
From the text: as §1, §3

[5] = Dynamic surface tension, bubble pressure method (BP2100 tensiometer, Krüss); assay type: physicochemical
Description: Dynamic surface tension was determined via the bubble pressure method (BP2100 tensiometer, Krüss). Given a timespan of relevance for the spray application of agrochemicals in aqueous dilution (called the surface age in the bubble pressure method) of 200 milliseconds (ms), the value for dynamic surface tension in [mN/m] correlates with the adhesion on plants that are difficult to wet, such as barley (cereal). A value of 50 mN/m (at 20-21° C.) with respect to water (72.8 mN/m) results in an improvement in the adhesion from “zero adhesion” (0%) to about 50% (Baur P., Pontzen R.; 2007; Basic features of plant surface wettability and deposit formation and the impact of adjuvant; in R. E. Gaskin ed. Proceedings of the 8th International Symposium on Adjuvants for Agrochemicals; Publisher: International Society for Agrochemical Adjuvants (ISAA), Columbus, Ohio, USA).

apple leaf cuticles [6] = experiment: Penetration of Mesosulfuron-methyl through isolated apple leaf cuticles in the presence of test substances; assay type: in vitro ADME; conditions: for Mean penetration for Mesosulfuron-methyl after time: Mesosulfuron-methyl 0.1 g/L in spray liquid, 10° C./61% rel. air humidity
From the text: as §1, §2

apple leaf cuticles [7] = experiment: Penetration of Mesotrione through isolated apple leaf cuticles in the presence of test substances
From the text: as §1
as §3, with “In each case, the geometric mean values of the penetration for intact membranes at the mean measurement times are given.” left out

CCCCCCCCC(=O)OCCOCCOCCOCCOCCOCCOC [A1, Pelargonic acid 6 EO ester methyl ether]
Mean penetration for lodosulfuron-methyl after time (apple leaf cuticles [1]; test substance 0.3 g/L, 1 day): 1.0% | Mean penetration for lodosulfuron-methyl after time (apple leaf cuticles [1]; test substance 0.3 g/L, 2 days): 1.5% | Mean penetration for lodosulfuron-methyl after time (apple leaf cuticles [1]; test substance 1.0 g/L, 1 day): 2.3% | Mean penetration for lodosulfuron-methyl after time (apple leaf cuticles [1]; test substance 1.0 g/L, 2 days): 3.3% | Mean penetration for lodosulfuron-methyl after time (apple leaf cuticles [1]; test substance 3.0 g/L, 1 day): 7.6% | Mean penetration for lodosulfuron-methyl after time (apple leaf cuticles [1]; test substance 3.0 g/L, 2 days): 8.8% | uptake of the active ingredient (lodosulfuron-methyl), in words (apple leaf cuticles [1]; summary of Table 6): strongly increases the uptake | Mean penetration for Flufenacet after time (apple leaf cuticles [2]; test substance 1.0 g/L, 1 day): 10.7% | Mean penetration for Flufenacet after time (apple leaf cuticles [2]; test substance 1.0 g/L, 2 days): 16.9% | Mean penetration for Flufenacet after time (apple leaf cuticles [2]; test substance 10 g/L, 1 day): 18.2% | Mean penetration for Flufenacet after time (apple leaf cuticles [2]; test substance 10 g/L, 2 days): 28.0% | uptake of the active ingredient (Flufenacet), in words (apple leaf cuticles [2]; summary of Table 4, compared to the commercial formulation): strongly increases the uptake | Mean penetration for Benzyladenine after time (apple leaf cuticles [3]; test substance 0.3 g/L, 1 day): 4.2% | Mean penetration for Benzyladenine after time (apple leaf cuticles [3]; test substance 0.3 g/L, 2 days): 4.5% | Mean penetration for Benzyladenine after time (apple leaf cuticles [3]; test substance 0.8 g/L, 1 day): 9.7% | Mean penetration for Benzyladenine after time (apple leaf cuticles [3]; test substance 0.8 g/L, 2 days): 10.6% | Mean penetration for Benzyladenine after time (apple leaf cuticles [3]; test substance 1.5 g/L, 1 day): 17.2% | Mean penetration for Benzyladenine after time (apple leaf cuticles [3]; test substance 1.5 g/L, 2 days): 17.9% | Mean penetration for Benzyladenine after time (apple leaf cuticles [3]; test substance 3.0 g/L, 1 day): 17.9% | Mean penetration for Benzyladenine after time (apple leaf cuticles [3]; test substance 3.0 g/L, 2 days): 18.6% | uptake of the agrochemical active (Benzyladenine), in words (apple leaf cuticles [3]; summary of Table 10): strongly increases the uptake | Mean penetration for Imidacloprid after time (apple leaf cuticles [4]; test substance 0.3 g/L, 1 day): 2.8% | Mean penetration for Imidacloprid after time (apple leaf cuticles [4]; test substance 0.3 g/L, 4 days): 3.8% | Mean penetration for Imidacloprid after time (apple leaf cuticles [4]; test substance 1.0 g/L, 1 day): 31.7% | Mean penetration for Imidacloprid after time (apple leaf cuticles [4]; test substance 1.0 g/L, 4 days): 38.2% | uptake of the agrochemical active (Imidacloprid), in words (apple leaf cuticles [4]; summary of Table 8): strongly increases the uptake | Dynamic Surface tension ([5]; 0.3 g/L, 20 ms): 61.2 mN/m | Dynamic Surface tension ([5]; 0.3 g/L, 50 ms): 57.3 mN/m | Dynamic Surface tension ([5]; 0.3 g/L, 100 ms): 54.4 mN/m | Dynamic Surface tension ([5]; 0.3 g/L, 200 ms): 51.5 mN/m | Dynamic Surface tension ([5]; 1 g/L, 20 ms): 47.6 mN/m | Dynamic Surface tension ([5]; 1 g/L, 50 ms): 44.5 mN/m | Dynamic Surface tension ([5]; 1 g/L, 100 ms): 42.1 mN/m | Dynamic Surface tension ([5]; 1 g/L, 200 ms): 39.8 mN/m | Dynamic Surface tension ([5]; 3 g/L, 20 ms): 33.7 mN/m | Dynamic Surface tension ([5]; 3 g/L, 50 ms): 32.0 mN/m | Dynamic Surface tension ([5]; 3 g/L, 100 ms): 30.8 mN/m | Dynamic Surface tension ([5]; 3 g/L, 200 ms): 29.5 mN/m | Dynamic Surface tension ([5]; 10 g/L, 20 ms): 30.2 mN/m | Dynamic Surface tension ([5]; 10 g/L, 50 ms): 29.3 mN/m | Dynamic Surface tension ([5]; 10 g/L, 100 ms): 28.6 mN/m | Dynamic Surface tension ([5]; 10 g/L, 200 ms): 27.9 mN/m | Mean penetration for Mesosulfuron-methyl after time (apple leaf cuticles [6]; test substance 1.0 g/L, 1 day): 1.9% | Mean penetration for Mesosulfuron-methyl after time (apple leaf cuticles [6]; test substance 1.0 g/L, 2 days): 3.6% | Mean penetration for Mesosulfuron-methyl after time (apple leaf cuticles [6]; test substance 3.0 g/L, 1 day): 4.2% | Mean penetration for Mesosulfuron-methyl after time (apple leaf cuticles [6]; test substance 3.0 g/L, 2 days): 5.2% | Mean penetration for Mesosulfuron-methyl after time (apple leaf cuticles [6]; test substance 10 g/L, 1 day): 9.2% | Mean penetration for Mesosulfuron-methyl after time (apple leaf cuticles [6]; test substance 10 g/L, 2 days): 10.9% | uptake of the active ingredient (Mesosulfuron-methyl), in words (apple leaf cuticles [6]; summary of Table 5): strongly increases the uptake | uptake of the active ingredient (Mesotrione), in words (apple leaf cuticles [7]): increases the uptake
